System: LXRα and/or LXRβ
Assay: LXR/LXRE co-transfection assay (luciferase reporter, CV-1 cells)
Format: cell-based, human
Conditions: IC50 or EC50 for LXR (LXRα and/or LXRβ, not distinguished), tested as described in Example 109, CV-1 cells
Summary of the method: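 Luciferase readout after 20 h compound exposure at 37 °C in CV-1 cells transiently expressing human LXRα or LXRβ with RXRα and an LXRE-driven reporter. Dose-response over 8 points at ½-log spacing, 4 wells each, fitted for EC50/IC50; values average ≥3 independent experiments, efficacy as % of high control.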

EC50 [nM]	SMILES
< 1000	Cc1cc(-c2cccc(S(C)(=O)=O)c2)ccc1-n1nc(C(C)(C)O)cc1-c1ccccc1Cl [Example 113, 2-(5-(2-chlorophenyl)-1-(3-methyl-3′-(methylsulfonyl)biphenyl-4-)-1H-pyrazol-3-yl)propan-2-ol]
1000 to 10000	CC(=O)c1cccc(-c2ccc(-c3cc(C(C)(C)O)nn3-c3ccccc3Cl)s2)c1 [Example 755, 1-(3-{5-[1-(2-chlorophenyl)-3-(1-hydroxy-1-methylethyl)-1H-pyrazol-5-yl]-2-thienyl}phenyl)ethanone]
< 1000	CC(C)(O)c1cc(-c2ccc(-c3cccc(S(C)(=O)=O)c3)s2)n(-c2ccccc2)n1 [Example 1262, 2-(5-{5-[3-(methylsulfonyl)phenyl]-2-thienyl}-1-phenyl-1H-pyrazol-3-yl)propan-2-ol]
< 1000	CC(C)(O)c1cc(-c2ccc(-c3cccc(S(C)(=O)=O)c3)s2)n(-c2cccc3c2OC(F)(F)O3)n1 [Example 1342, 2-[1-(2,2-difluoro-1,3-benzodioxol-4-yl)-5-{5-[3-(methylsulfonyl)phenyl]-2-thienyl}-1H-pyrazol-3-yl]propan-2-ol]
1000 to 10000	CC(C)c1cccc(-c2ccc(-c3cc(C(C)(C)O)nn3-c3ccccc3Cl)s2)c1 [Example 1332, 2-[1-(2-chlorophenyl)-5-{5-[3-(1-methylethyl)phenyl]-2-thienyl}-1H-pyrazol-3-yl]propan-2-ol]
< 1000	Cc1cc(-c2cccc(S(C)(=O)=O)c2)ccc1-c1c(Cl)c(C(C)(C)O)nn1-c1cccnc1C(F)(F)F [Example 1391, 2-(4-chloro-5-(3-methyl-3′-(methylsulfonyl)biphenyl-4-yl)-1-(2-(trifluoromethyl)pyridin-3-yl)-1H-pyrazol-3-yl)propan-2-ol]
< 1000	COC(C)(C)c1cc(-c2ccc(-c3cccc(S(C)(=O)=O)c3)s2)n(-c2ccccc2Cl)n1 [Example 134, 1-(2-chlorophenyl)-3-(2-methoxypropan-2-yl)-5-(5-(3-(methylsulfonyl)phenyl)thiophen-2-yl)-1H-pyrazole]
< 1000	CCNC(=S)c1cc(-c2ccc(-c3cccc(S(C)(=O)=O)c3)s2)n(-c2ccccc2Cl)n1 [Example 1194, 1-(2-chlorophenyl)-N-ethyl-5-{5-[3-(methylsulfonyl)phenyl]-2-thienyl}-1H-pyrazole-3-carbothioamide]
1000 to 10000	COc1cccc(-c2ccc(-c3cc(C(C)(C)O)nn3-c3ccccc3Cl)s2)c1OC [Example 859, 2-[5-{5-[2,3-bis(methyloxy)phenyl]-2-thienyl}-1-(2-chlorophenyl)-1H-pyrazol-3-yl]propan-2-ol]
< 1000	CC(C)(O)c1nn(-c2ccccc2Br)c(-c2ccc(-c3cccc(S(C)(=O)=O)c3)s2)c1Br [Example 1360, 2-[4-bromo-1-(2-bromophenyl)-5-{5-[3-(methylsulfonyl)phenyl]-2-thienyl}-1H-pyrazol-3-yl]propan-2-ol]
< 1000	CC(C)(O)c1cc(-c2ccc(-c3cccc(S(C)(=O)=O)c3)cc2Cl)n(-c2cccnc2C(F)(F)F)n1 [Example 1385, 2-(5-(3-chloro-3′-(methylsulfonyl)biphenyl-4-yl)-1-(2-(trifluoromethyl)pyridin-3-yl)-1H-pyrazol-3-yl)propan-2-ol]
1000 to 10000	CC(C)(O)c1cccc(-c2ccc(-c3cc(C(F)(F)F)nn3-c3ncccc3C(F)(F)F)s2)c1 [Example 1252, 2-[3-(5-{3-(trifluoromethyl)-1-[3-(trifluoromethyl)pyridin-2-yl]-1H-pyrazol-5-yl}-2-thienyl)phenyl]propan-2-ol]
< 1000	CS(=O)(=O)c1cccc(-c2ccc(-c3cc(C(=O)NCC(F)(F)F)nn3-c3c(Cl)cccc3Cl)c(Cl)c2)c1 [Example 1397, 5-(3-chloro-3′-(methylsulfonyl)biphenyl-4-yl)-1-(2,6-dichlorophenyl)-N-(2,2,2-trifluoroethyl)-1H-pyrazole-3-carboxamide]
< 1000	CC(C)(O)c1cc(-c2ccc(-c3cccc(S(C)(=O)=O)c3)s2)n(-c2cccnc2Cl)n1 [Example 1273, 2-[1-(2-chloropyridin-3-yl)-5-{5-[3-(methylsulfonyl)phenyl]-2-thienyl}-1H-pyrazol-3-yl]propan-2-ol]
1000 to 10000	CC(C)(O)c1cc(-c2ccc(-c3ccc(S(N)(=O)=O)cc3)cc2)n(-c2ccccc2Cl)n1 [Example 1306, 4′-[1-(2-chlorophenyl)-3-(1-hydroxy-1-methylethyl)-1H-pyrazol-5-yl]biphenyl-4-sulfonamide]
< 1000	Cc1c(Cl)cccc1-n1nc(C(C)(C)O)cc1-c1ccc(-c2cccc(S(C)(=O)=O)c2)s1 [Example 1340, 2-[1-(3-chloro-2-methylphenyl)-5-{5-[3-(methylsulfonyl)phenyl]-2-thienyl}-1H-pyrazol-3-yl]propan-2-ol]

EC50 [nM]	SMILES
< 1000	CC(C)(O)c1cc(-c2ccc(-c3cc(C(F)(F)F)nn3-c3c(Cl)cccc3Cl)s2)cc(S(C)(=O)=O)c1 [Example 1317, 2-[3-{5-[1-(2,6-dichlorophenyl)-3-(trifluoromethyl)-1H-pyrazol-5-yl]-2-thienyl}-5-(methylsulfonyl)phenyl]propan-2-ol]
< 1000	CCc1ccccc1-n1nc(C(C)(C)O)c(Cl)c1-c1ccc(-c2cccc(S(C)(=O)=O)c2)s1 [Example 1373, 2-[4-chloro-1-(2-ethylphenyl)-5-{5-[3-(methylsulfonyl)phenyl]-2-thienyl}-1H-pyrazol-3-yl]propan-2-ol]
< 1000	CC(C)(O)c1cc(-c2ccc(-c3cccc(S(C)(=O)=O)c3)s2)n(-c2c(Cl)cccc2Cl)n1 [Example 1239, 2-[1-(2,6-dichlorophenyl)-5-{5-[3-(methylsulfonyl)phenyl]-2-thienyl}-1H-pyrazol-3-yl]propan-2-ol]
< 1000	COC(=O)c1cc(-c2cc(-c3cccc(S(C)(=O)=O)c3)co2)n(-c2ccccc2Cl)n1 [Example 1234, methyl 1-(2-chlorophenyl)-5-{4-[3-(methylsulfonyl)phenyl]furan-2-yl}-1H-pyrazole-3-carboxylate]
1000 to 10000	CCN(CC)CCN(C)C(=O)c1cc(-c2ccc(-c3cccc(S(C)(=O)=O)c3)s2)n(-c2ccccc2Cl)n1 [Example 1140, 1-(2-chlorophenyl)-N-[2-(diethylamino)ethyl]-N-methyl-5-{5-[3-(methylsulfonyl)phenyl]-2-thienyl}-1H-pyrazole-5-carboxamide]
1000 to 10000	CC(C)(O)c1cc(-c2ccc(-c3cccc(S(C)(=O)=O)c3)s2)n(-c2cc(C(F)(F)F)ccc2Cl)n1 [Example 1347, 2-(1-[2-chloro-5-(trifluoromethyl)phenyl]-5-{5-[3-(methylsulfonyl)phenyl]-2-thienyl}-1H-pyrazol-3-yl)propan-2-ol]
< 1000	CC(=O)c1cc(-c2cc(C(F)(F)F)nn2-c2ccccc2Cl)ccc1-c1cccc(S(C)(=O)=O)c1 [Example 1206, 1-{4-[1-(2-chlorophenyl)-3-(trifluoromethyl)-1H-pyrazol-5-yl]-3′-(methylsulfonyl)biphenyl-2-yl}ethanone]
< 1000	CC(C)(O)c1cc(-c2ccc(-c3cccc(S(C)(=O)=O)c3)s2)n(-c2cccc(Cl)c2F)n1 [Example 1328, 2-[1-(3-chloro-2-fluorophenyl)-5-{5-[3-(methylsulfonyl)phenyl]-2-thienyl}-1H-pyrazol-3-yl]propan-2-ol]
< 1000	CC(C)(O)c1nn(-c2ccc(-c3cccc(S(C)(=O)=O)c3)cc2Cl)c(-c2ccccc2C(F)(F)F)c1Cl [Example 1421, 2-(4-chloro-1-(3-chloro-3′-(methylsulfonyl)biphenyl-4-yl)-5-(2-(trifluoromethyl)phenyl)-1H-pyrazol-3-yl)propan-2-ol]
1000 to 10000	CC(C)(O)c1cc(-c2ccc(-c3ccc(C(F)(F)F)cc3Cl)cc2)n(-c2ccccc2Cl)n1 [Example 1288, 2-{1-(2-chlorophenyl)-5-[2′-chloro-4′-(trifluoromethyl)biphenyl-4-yl]-1H-pyrazol-3-yl}propan-2-ol]
< 1000	CS(=O)(=O)c1cccc(-c2ccc(-c3cc(C(F)(F)F)nn3-c3ccccc3Oc3ccccc3)s2)c1 [Example 1215, 5-{5-[3-(methylsulfonyl)phenyl]-2-thienyl}-1-[2-(phenyloxy)phenyl]-3-(trifluoromethyl)-1H-pyrazole]
1000 to 10000	CS(=O)(=O)c1cc(-c2ccc(-c3cc(C(F)(F)F)nn3-c3cc(Cl)ccc3Cl)s2)ccc1OCCN1CCOCC1 [Example 1259, 4-(2-{[4-{5-[1-(2,5-dichlorophenyl)-3-(trifluoromethyl)-1H-pyrazol-5-yl]-2-thienyl}-2-(methylsulfonyl)phenyl]oxy}ethyl)morpholine]
1000 to 10000	CN1CCN(C(=O)c2cc(-c3ccc(-c4cccc(S(C)(=O)=O)c4)s3)n(-c3ccccc3Cl)n2)CC1 [Example 508, 1-{[1-(2-chlorophenyl)-5-{5-[3-(methylsulfonyl)phenyl]-2-thienyl}-1H-pyrazole-3-yl]carbonyl}-4-methylpiperazine]
1000 to 10000	CS(=O)(=O)c1cccc(-c2ccc(-c3cc(C(F)(F)F)nn3-c3ccccc3Cl)cc2C(=O)N2CCOCC2)c1 [Example 1142, 4-({4-[1-(2-chlorophenyl)-3-(trifluoromethyl)-1H-pyrazol-5-yl]-3′-(methylsulfonyl)biphenyl-2-yl}carbonyl)morpholine]
< 1000	CC(C)(O)c1cc(-c2ccc(-c3cccc(S(C)(=O)=O)c3)cc2)n(-c2ncccc2C(F)(F)F)n1 [Example 1202, 2-{5-[3′-(methylsulfonyl)phenyl-4-yl]-1-[3-(trifluoromethyl)pyridin-2-yl]-1H-pyrazol-3-yl}propan-2-ol]

SMILES	EC50 [nM]
FC(F)(F)c1cc(-c2cccc(OCCN3CCOCC3)c2)n(-c2ccccc2Cl)n1 [Example 67, 4-(2-(3-(1-(2-chlorophenyl)-3-(trifluoromethyl)-1H-pyrazol-5-yl)phenoxy)-ethyl)morpholine]	1000 to 10000

Source: US8703805B2 (Exelixis Patent Company LLC, priority 2005, dated 2014)
